# Measurements as given in patent US8193225B2, “Isoxazole amides, derivatives and methods of chemical induction of neurogenesis” (priority 2006, dated 2012).
# “Also recorded” adds a separate entry of the source.
# Assays:
# P19CL6 cells = experiment: neuronal differentiation of P19CL6 cells; format: cell-based, mouse; conditions: 4 d cultures
# Experimental: (§1) Neural stem cell culture, in vitro differentiation, and CaMK inhibitor studies. The hippocampal neural stem/progenitor (NSC) line used in this study (HCN cells) were originally isolated from adult (8-10 wks old) female Fisher 344 rats and have been characterized previously (Gage et al., 1995; Palmer et al., 1997). HCN cells were cultured in DMEM:F12 (Omega Scientific) with N2 supplement (Invitrogen) and basic fibroblast growth factor (20 ng/ml FGF-2) (PeproTech). The mouse whole brain neural stem/progenitors (MWB) were derived from adult (8-10 wks old) C57BL/6 mice that have been characterized previously (Ray and Gage, 2006). The P19CL6 cells is a sub-line of P19EC cells, originally generated by the late Dr. Habara-Ohkubo (Habara-Ohkubo, 1996), were grown in MEM-α (Invitrogen) containing 10% fetal bovine serum (Omega). HCN cells or MWB neural progenitors were trypsinized and plated into N2 medium (Invitrogen) containing FGF-2 (HCN cells) or FGF-2/EGF/heparin (MWB) overnight, and switched to fresh N2 medium without FGF-2 and Isx-9 (20 μM for HCN cells and 5 μM for MWB) was added for 4 d. To test if Isx-9 could block competing astrocyte or oligodendrocyte differentiation, standard gliogenic conditions were used as described previously (Hsieh et al., 2004). […]
# NeuroD-luciferase = NeuroD-luciferase reporter in BTSCs; format: cell-based, human; conditions: after 24 hours, compared to vehicle
# Experimental: CD133+ glioblastoma brain tumor stem cells (BTSCs) from an explanted human tumor specimen were treated with 20 μM Isx-9 (FIG. 9C) or vol/vol DMSO (vehicle) control (FIG. 9B).
# gluR2-luc = experiment: gluR2-luciferase reporter gene assay in HCN cells; format: cell-based, rat
# [1] = tested on: human CD133(+) brain tumor stem cells (BTSCs); experiment: growth, secondary neurospheres and BrdU uptake of BTSCs; format: cell-based
# Experimental: CD133(+) brain tumor stem cells (BTSCs) from an explanted human tumor specimen were treated with EGF/FGF (FIG. 10A) or Isx-9 (20 μM) (FIG. 10B) for 7 days before returning to EGF/FGF (FIG. 10C) or EGF/FGF plus Isx-9 conditions (FIG. 10D) for an additional 2 days.
# The number and size of neurospheres observed in 7-day pretreated BTSCs with DMSO (vehicle), EGF/FGF, or Isx-9 that were dissociated and re-plated to form secondary neurospheres (1000 cells/well) under various conditions is shown in FIG. 10F.
# HDAC5 = experiment: protein blotting of phospho-HDAC5, HDAC4 and phospho-CaMKII in HCN cells; format: cell-based, rat; conditions: Isx/Isx-9-treated HCNs, 1-2 d
# [2] = tested on: adult mouse whole brain (MWB) neural progenitor cells; experiment: neuronal differentiation of adult mouse whole brain (MWB) neural progenitor cells; format: cell-based; conditions: 4 d cultures
# Experimental: as §1
# MEF2 = experiment: gel shift assay of MEF2 binding to MEF2 response element of NR1 gene; format: cell-based, rat; conditions: versus vehicle-treated cells
# Experimental: Protein blotting, immunoprecipitation, and gel shift assay. For protein blotting analysis, whole cell lysates were prepared from HCN cells using RIPA buffer (Tris-HCl, 50 mM, pH 7.4; NP-40, 1%; Na-deoxycholate, 0.25%; NaCl, 150 mM; EDTA, 1 mM; PMSF, 1 mM; aprotinin, leupeptin, pepstatin, 1 mg/ml; Na3VO4, 1 mM; NaF, 1 mM). For nuclear and cytoplasmic extracts, HCNs were lysed in hypotonic buffer (Hepes, 10 mM, pH 8; MgCl2, 1.5 mM; KCl, 10 mM; DTT, 1 mM). Nuclei was then isolated and resuspended in the same buffer with NaCl, 420 mM; EDTA, 0.2 mM; glycerol, 25%; NP-40, 1%; PMSF, 1 mM; aprotinin, leupeptin, pepstatin, 1 mg/ml. Protein concentration in centrifugation-clarified cell lysates were measured by the BCA Protein Assay Kit (Pierce) and equal amounts of protein were separated on a 4-12% SDS-PAGE and transferred to Hybond PVDF (Amersham Biosciences). Protein blots were done using the NuPage gel and transfer system with 4-20% Tris-Bis gels (Invitrogen). […]
# HCN cells = experiment: glial (astrocyte, oligodendrocyte) differentiation of HCN cells/NPCs; format: cell-based, rat; conditions: 4 d cultures
structure (smiles),measurement,setting,value
"O=C(NC1CC1)c1cc(-c2cccs2)on1 [Isx-9, N-cyclopropyl-5-(thiophen-2-yl)isoxazole-3-carboxamide]",neuronal differentiation of P19CL6 / P19 embryonal carcinoma cells,P19CL6 cells,promotes neuronal differentiation
same,activation of NeuroD-luciferase in BTSCs,NeuroD-luciferase,Dose-dependent activation
same,increase in gluR2 luciferase reporter,gluR2-luc,≥ 8 fold
same,cell attachment and differentiation of BTSCs after growth factor challenge,"[1]; 7-day exposure, 20 μM",promotes an irreversible state of cell attachment and differentiation
same,number and size of secondary neurospheres,"[1]; 7-day pre-treatment, compared to EGF/FGF pre-treatment",mediates a decrease in the average number and size of each secondary neurosphere
same,DNA synthesis/proliferation (BrdU uptake) of BTSCs,"[1]; 7 days pre-treatment, EGF/FGF added back for 24 hours",leads to decreased DNA synthesis/proliferation
same,HDAC5 phosphorylation / cytoplasmic phospho-HDAC5,HDAC5,Increased HDAC5 phosphorylation over time; also recorded: Accumulation of phospho-HDAC5 in the cytoplasm; also recorded: cytoplasmic enrichment of phospho-HDAC5
same,neuronal differentiation of MWB neural progenitors,[2],promotes neuronal differentiation
same,total MEF2 binding to MEF2 response element within the NR1 gene,MEF2,similar
same,gliogenesis / glial differentiation,HCN cells,dominantly blocks gliogenesis
